Source: patent US6759402B2, “Cyclic felbamate derived compounds” (University of Virginia Patent Foundation, priority 1999, dated 2004)
Marks after values point to notes of the source that are not given here.

Experiments:
mice (rotorod) = experiment: Minimal neurotoxicity (TOX), rotorod test, mice i.p.; assay type: in vivo; conditions: for TOX: number of animals exhibiting toxic effects/total number of animals tested: mice i.p.
Description: The fluoro derivatives synthesized were submitted to the National Institute of Neurological Disorders and Stroke (NINDS) for evaluation in a standard panel of assays. Two convulsant tests (MES and scMET), and a toxicity screen (rotorod in mice, positional sense and gait in rats) were employed for evaluating the compounds activity as neuroprotecting agents. These testing procedures are described in detail in Molecular and Cellular Targets for Anti-epileptic Drugs, eds. […] The felbamate derivatives were evaluated for anticonvulsant activity following intraperitoneal (i.p.) administration in mice and oral administration in rats. […]

[1] = system: MES-induced seizure spread; experiment: Maximal Electroshock Seizure (MES) test, rats p.o.; assay type: in vivo; conditions: for anti-seizure activity in rats: rat models; for MES: number of animals protected/total number of animals tested: rat p.o.; for MES: number of animals protected/total number of animals tested / MES protection: 30 mg/kg; for MES protection: rats, oral, several timepoints
Description: (§1) The fluoro derivatives synthesized were submitted to the National Institute of Neurological Disorders and Stroke (NINDS) for evaluation in a standard panel of assays. Two convulsant tests (MES and scMET), and a toxicity screen (rotorod in mice, positional sense and gait in rats) were employed for evaluating the compounds activity as neuroprotecting agents. These testing procedures are described in detail in Molecular and Cellular Targets for Anti-epileptic Drugs, eds. G. Avanzini, G. Regesta, P. Tanganelli, M. Avoli, 1997, John Libbey & Company Ltd, pp 191-198. The felbamate derivatives were evaluated for anticonvulsant activity following intraperitoneal (i.p.) administration in mice and oral administration in rats.
(§2) The MES test is a model for generalized tonic-clonic seizures and is used to identify compounds which prevent seizure spread. The behavioral and electrographic seizures generated in this model are consistent with the human disorder. In the MES test, an electrical stimulus of 0.2 s in duration (50 mA in mice and 150 mA in rat at 60 Hz) was delivered via corneal electrodes primed with an electrolyte solution containing an anesthetic agent. Mice were tested at 30 minutes and 4 hours following doses of 30, 100 and 300 mg/kg of test compound. Rats were tested at time intervals between 0.25 and 4 hours following a standard oral dose of 30 mg/kg. Abolition of the hindlimb tonic extensor component indicates the test compound's ability to inhibit MES-induced seizure spread.
(§3) For the MES and scMET tests the data is presented in the form of the number of animals protected by the administered compound/total number of animals tested. […] Qualitative data was obtained for fluoro felbamate 12 (Tables 1 and 2A), fluoro monocarbamate felbamate 13 (Tables 1 and 2B), and flourodioxo 16 (Tables 1 and 2C) and for cyclic felbamate 21 (Tables 5 and 6B) and cyclic monocarbamate 22 (Tables 5 and 6A). More extensive quantitative data was also obtained for fluoro felbamate 12 in mice (Table 3) and rats (Table 4).

[2] = system: MES-induced seizure spread; experiment: Maximal Electroshock Seizure (MES) test, mice i.p.; assay type: in vivo; conditions: for MES: number of animals protected/total number of animals tested: mice i.p.
Description: as §1, §2, §3

[3] = system: rats (positional sense, gait and stance); experiment: Minimal neurotoxicity (TOX), positional sense and gait and stance tests, rats p.o.; assay type: in vivo; conditions: for TOX: number of animals exhibiting toxic effects/total number of animals tested: rat p.o., 30 mg/kg
Description: The fluoro derivatives synthesized were submitted to the National Institute of Neurological Disorders and Stroke (NINDS) for evaluation in a standard panel of assays. Two convulsant tests (MES and scMET), and a toxicity screen (rotorod in mice, positional sense and gait in rats) were employed for evaluating the compounds activity as neuroprotecting agents. These testing procedures are described in detail in Molecular and Cellular Targets for Anti-epileptic Drugs, eds. […] The felbamate derivatives were evaluated for anticonvulsant activity following intraperitoneal (i.p.) administration in mice and oral administration in rats.
Rats are examined for behavioral toxicity by the positional sense test and a gait and stance test. […] In the gait and stance test, neurotoxicity is indicated by a circular or zigzag gait, ataxia, abnormal spread of the legs, abnormal posture, tremor hyperactivity, lack of exploratory behavior, somnolence, stupor or catalepsy.
For the MES and scMET tests the data is presented in the form of the number of animals protected by the administered compound/total number of animals tested.

[4] = system: pentylenetetrazol-induced clonic seizures; experiment: Subcutaneous Metrazol seizure test (scMET), mice i.p.; assay type: in vivo, Carworth Farms No. 1 mice
Description: as §1
This is a model that primarily identifies compounds that raise seizure threshold. With some minor exceptions, the pharmacological profile of the scMET seizure model is consistent with the human condition. The scMET test utilizes a dose of pentylenetetrazol (85 mg/kg in Carworth Farms No. 1 mice and 70 mg/kg in Sprague-Dawley rats) that induces clonic seizures lasting for a period of at least five seconds in 97% (CD97) of animals tested. At the anticipated time of testing the convulsant is administered subcutaneously. The test compound is administered intraperitoneally in mice and orally in rats. Animals are observed over a 30 minute period. Absence of clonic spasms in the observed time period indicates a compound's ability to abolish the effect of pentylenetetrazol on seizure threshold.
as §3

[5] = system: hippocampal kindled focal seizures; experiment: Hippocampal kindling model, kindled rats i.p.; assay type: in vivo, adult male Sprague-Dawley rats; conditions: for Number Protected/Number Tested: Dose Responses table
Description: The hippocampal kindling model can be used to evaluate a compound's ability to affect both the expression and acquisition of focal seizures. The hippocampal kindling paradigm as described by Lothman and Williamson (Lothman, 1994) allows the temporal effects of a drug to be evaluated in a single animal. This procedure requires the surgical placement of bipolar electrodes in the ventral hippocampus of adult male Sprague-Dawley rats. Stage five behavioral seizures are produced by using a stimulus consisting of a 50 Hz, 10 s train of 1 ms biphasic 200 uA pulses delivered every 30 min for 6 hours (12 stimuli per day) on alternating days for a total of 60 stimulations (five stimulus days). Prior to evaluating a candidate's anticonvulsant activity, a drug free control period consisting of supramaximal stimulations are recorded to verify the stability of a stage five generalized seizure.
A single dose of the candidate compound is then administered intraperitoneally (i.p.), 15 min following the last control stimulation. The anticonvulsant activity of the drug is assessed every 30 min for three to four hours starting 15 min after administering the test material. After each stimulation, individual Racine seizure scores and afterdischarge durations are recorded. Rats are used again in drug trials after four to five drug- and stimulus-free days.

[6] = Stability of oxazinane-dione at relevant pH; assay type: physicochemical

## NC(=O)OCC1(c2ccccc2)COC(=O)N1 (stereo not drawn) [cyclic felbamate]
Mice (rotorod); 30 mg/kg, 0.5 h
  TOX: number of animals exhibiting toxic effects/total number of animals tested: 0/4
Mice (rotorod); 30 mg/kg, 4.0 h
  TOX: number of animals exhibiting toxic effects/total number of animals tested: 0/2
Mice (rotorod); 100 mg/kg, 0.5 h
  TOX: number of animals exhibiting toxic effects/total number of animals tested: 0/8
Mice (rotorod); 100 mg/kg, 4.0 h
  TOX: number of animals exhibiting toxic effects/total number of animals tested: 0/4
Mice (rotorod); 300 mg/kg, 0.5 h
  TOX: number of animals exhibiting toxic effects/total number of animals tested: 0/4
Mice (rotorod); 300 mg/kg, 4.0 h
  TOX: number of animals exhibiting toxic effects/total number of animals tested: 0/2
[1]
  anti-seizure activity in rats: potent activity
[1]; 0.25 h
  MES: number of animals protected/total number of animals tested: 2/4
[1]; 0.5 h
  MES: number of animals protected/total number of animals tested: 2/4
[1]; 1.0 h
  MES: number of animals protected/total number of animals tested: 3/4
[1]; 2.0 h
  MES: number of animals protected/total number of animals tested: 0/4
[1]; 4.0 h
  MES: number of animals protected/total number of animals tested: 3/4
[2]; 30 mg/kg, 0.5 h
  MES: number of animals protected/total number of animals tested: 0/1
[2]; 30 mg/kg, 4.0 h
  MES: number of animals protected/total number of animals tested: 0/1
[2]; 100 mg/kg, 0.5 h
  MES: number of animals protected/total number of animals tested: 0/3
[2]; 100 mg/kg, 4.0 h
  MES: number of animals protected/total number of animals tested: 0/3
[2]; 300 mg/kg, 0.5 h
  MES: number of animals protected/total number of animals tested: 0/1
[2]; 300 mg/kg, 4.0 h
  MES: number of animals protected/total number of animals tested: 0/1
[3]; 0.25 h
  TOX: number of animals exhibiting toxic effects/total number of animals tested: 0/4
[3]; 0.5 h
  TOX: number of animals exhibiting toxic effects/total number of animals tested: 0/4
[3]; 1.0 h
  TOX: number of animals exhibiting toxic effects/total number of animals tested: 0/4
[3]; 2.0 h
  TOX: number of animals exhibiting toxic effects/total number of animals tested: 0/4
[3]; 4.0 h
  TOX: number of animals exhibiting toxic effects/total number of animals tested: 0/4
[4]; 30 mg/kg, 0.5 h
  ScMET: number of animals protected/total number of animals tested: 0/1
[4]; 30 mg/kg, 4.0 h
  ScMET: number of animals protected/total number of animals tested: 0/1
[4]; 100 mg/kg, 0.5 h
  ScMET: number of animals protected/total number of animals tested: 0/1
[4]; 100 mg/kg, 4.0 h
  ScMET: number of animals protected/total number of animals tested: 0/1
[4]; 300 mg/kg, 0.5 h
  ScMET: number of animals protected/total number of animals tested: 0/1
[4]; 300 mg/kg, 4.0 h
  ScMET: number of animals protected/total number of animals tested: 0/1

## O=C1NC(=O)C(F)(c2ccccc2)CO1 (stereo not drawn) [fluoro dioxo, 5-Fluoro-5-phenyl-1,3-oxazinane-2,4-dione]
[1]
  anti-seizure activity in rats: strong anti-seizure activity
[2]; mice
  anti-seizure activity in mice: inactive

## NC(=O)OCC(F)(COC(N)=O)c1ccccc1 [fluoro felbamate, 2-Fluoro-2-phenyl-1,3-propanediol dicarbamate]
Mice (rotorod); mice
  dosage at which toxicity across time occurs: ≥ 300 mg/kg
Mice (rotorod); mice, 30 mg/kg, 30 minute timepoint
  toxic effects: some toxic effects
Mice (rotorod); mice, quantitative results (Table 3)
  safety ratio: at least five
Mice (rotorod); mouse, I.P.
  TOX ED50: 115 mg/kg
[1]
  MES protection: full protection
[2]; mice, 30 mg/kg, at both 30 minutes and 4 hours
  MES protection: MES protective effects
[2]; test not specified
  times more active than felbamate: 5-10 times
[3]; oral administration to rats
  no toxicity at doses up to: up to 500 mg/kg
[3]; rat, p.o.
  TOX ED50: >500 mg/kg
[5]; 25 mg/kg
  Number Protected/Number Tested: 0/7
[5]; 50 mg/kg
  Number Protected/Number Tested: 3/7
[5]; 100 mg/kg
  Number Protected/Number Tested: 7/8^a
[5]; kindled rats, 100 mg/kg
  afterdischarge duration: corresponding decrease in afterdischarge duration
  seizure score: significant drop in seizure score

## NC(=O)OCC(F)(CO)c1ccccc1 (stereo not drawn) [fluoro monocarbamate felbamate, 2-Fluoro-2-phenyl-1,3-propanediol monocarbamate]
[1]
  MES protection: protection is seen at several different timepoints
[2]; mice, 100 mg/kg
  MES protection: moderate MES protection

## O=C1NC(=O)C(c2ccccc2)CO1 (stereo not drawn) [oxazinane-dione 9]
[6]
  stability at relevant pH: unstable
